Measurements from US9056056B2, “Processing for dispersing amino acids” (N.V. Nutricia, priority 2007, dated 2015).

Experiments:
[1] = according to Eisenburg et al., Faraday Symp. Chem. Soc. 17:109-120 (1982); cited from earlier work
[2] = Wettability (wetting time), method of International IDF Standard 87:1979; type: physicochemical; conditions: for effect of coating on the wetting time: FIG. 1, coated versus uncoated amino acid; for wetting time: amino acid not coated
Excerpt: The wettability (wetting time) can be determined using the method of International IDF Standard 87:1979.

Structure (SMILES)	Hydrophobicity of amino acids (side chain hydrophobicity, SCH) [1]	effect of coating on the wetting time [2]	wetting time [2]
N[C@@H](CC(=O)O)C(=O)O [Asp]	-0.717 kcal/mol		
N[C@@H](Cc1ccc(O)cc1)C(=O)O [Tyr]	+0.08 kJ/mol	no or only a minor effect	short wetting time
N=C(N)NCCC[C@H](N)C(=O)O [Arg]	-1.79 kcal/mol		
NCCCC[C@H](N)C(=O)O [Lys, lysine]	-1.1 kcal/mol		
N[C@@H](Cc1ccccc1)C(=O)O [Phe, phenylalanine]	+2.5 kJ/mol		
C[C@H](N)C(=O)O [Ala]	+1.0 kJ/mol	no or only a minor effect	short wetting time
N[C@@H](CCC(=O)O)C(=O)O [Glu]	-0.621 kcal/mol		
CSCC[C@H](N)C(=O)O [Met, methionine]	+1.1 kJ/mol		
N[C@@H](Cc1c[nH]c2ccccc12)C(=O)O [Trp, tryptophan]	+1.5 kJ/mol		
CC[C@H](C)[C@H](N)C(=O)O [Ile, isoleucine]	+3.1 kJ/mol		
NC(=O)C[C@H](N)C(=O)O [Asn]	-0.645 kcal/mol		
N[C@@H](Cc1c[nH]cn1)C(=O)O [His]	-0.406 kcal/mol		
N[C@@H](CO)C(=O)O [Ser]	-0.263 kcal/mol		
N[C@@H](CS)C(=O)O [Cys, cysteine]	+0.17 kJ/mol		
O=C(O)[C@@H]1CCCN1 [Pro]	-0.0693 kcal/mol		
CC(C)[C@H](N)C(=O)O [Val, valine]	+2.3 kJ/mol		
C[C@@H](O)[C@H](N)C(=O)O [Thr, threonine]	-0.179 kcal/mol		
NCC(=O)O [Gly, glycine]	+0.67 kJ/mol		short wetting time
